From patent EP4745153A1, “GLP-1, GIP AND GCG RECEPTOR […] USE THEREOF” (Jiangsu Hengrui Pharmaceuticals Co., Ltd., priority 2023, dated 2025)
Starred links: 1 amine or outer side, 2 acyl side, 3 side chain; linkers in the order of their positions; H or OH if unused. Non-standard residues stand in square brackets, D forms with d. Residues, ends and D or L forms follow the SMILES beside them. Groups on a side chain read outwards from the residue. ξ: configuration not given here. *: point of attachment. C20 diacid = O=C(O)CCCCCCCCCCCCCCCCCCC(=O)*; γGlu = O=C(O)[C@H](CCC(=O)[*:2])N[*:1]; αMeK = C[C@](N)(CCCCN)C(=O)O; ξIva = CCC(C)(N)C(=O)O; AEEA = NCCOCCOCC(=O)O; Aib = CC(C)(N)C(=O)O

Assays:
human GIPR = biological target: T1, human GIPR (Homo sapiens, UniProt P48546); assay: cAMP HTRF agonist activity assay in CHO-K1 cells expressing GIPR; assay type: cell-based; settings: read-out: Activity against human GIPR (EC50 nM); note: 5% FBS, 0.1% Casein
T1 construct: expressed in transfected cells; host or cells: CHO-K1 clonal cell line
T1 sequence (P48546 22-466): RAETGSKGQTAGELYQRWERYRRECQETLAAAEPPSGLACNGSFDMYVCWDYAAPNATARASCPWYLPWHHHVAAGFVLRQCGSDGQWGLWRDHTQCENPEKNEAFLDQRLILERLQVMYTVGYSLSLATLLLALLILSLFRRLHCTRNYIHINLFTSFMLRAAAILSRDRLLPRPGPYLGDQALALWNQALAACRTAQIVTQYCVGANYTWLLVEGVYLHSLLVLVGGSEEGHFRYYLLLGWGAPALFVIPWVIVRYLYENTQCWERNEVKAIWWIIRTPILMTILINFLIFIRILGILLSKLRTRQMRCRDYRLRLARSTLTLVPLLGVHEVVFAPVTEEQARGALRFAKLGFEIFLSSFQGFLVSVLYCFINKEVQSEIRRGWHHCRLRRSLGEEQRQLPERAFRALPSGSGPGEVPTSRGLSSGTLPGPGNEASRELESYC
Experimental: Functional activity was determined in CHO-K1 clonal cell lines expressing GIPR, GLP-1R, and GCGR. […] Each recipient cell (5000 cells/well) was added to an SV 96-well plate (Cisbio, 66PL96025) and incubated with the prepared polypeptide at 37°Cfor 30 min. The resulting increase in intracellular cAMP was quantitatively measured using the cAMP-GS dynamic HTRF assay kit (Cisbio, 62AM4PEJ). Briefly, the intracellular cAMP levels were determined by adding cAMP-d2 conjugate in cell lysis buffer, followed by the antibody anti-cAMP-Eu cryptate (also in cell lysis buffer).
Using the maximum response percentage vs. the added polypeptide concentration, the relative EC50 values were derived through nonlinear regression analysis and fitted to a four-parameter logarithmic equation. For specific data, refer to Tables 7-1 to 7-8 below. […]

[1] = Pharmacokinetics in mice after single intravenous injection; parameters: species or system C57 mice; settings: male, C57, mouse, in vivo, iv
Experimental: Male C57 mice were used as test animals. The target compound was administered via a single intravenous injection, and the pharmacokinetic characteristics of the compound in C57 mice in vivo (plasma) were determined.
Male C57 mice, weighing approximately 25g, aged 4-6 weeks. After preparing the polypeptide compound solution using 1×PBS dissolving solution, the compound was administered intravenously at a dose of 200 nmol/kg, where each compound was administered to 3 animals. Blood samples of 60 µL were collected at 5 min, 15 min, 0.5 h, 1 h, 2 h, 4 h, 6 h, 24 h, 48 h and 72 h after the infusion was completed and transferred to centrifuge tubes containing EDTA-K2 anticoagulant. Whole blood samples were centrifuged at 4000 g for 5 min at 4°C. Plasma was separated and plasma samples were frozen and stored at -80 °C.
Sample pretreatment method: 30 µL of plasma samples was taken, and 120 µL of 0.1% formic acid in methanol containing 1 ng/mL internal standard verapamil was added. The mixture was vortexed for 5 min, and centrifuged at 10000 rpm for 10 min at low temperature. 70 µL of supernatant was taken, and 70 µL of water was added and mixed well. Analysis was performed by LC-MS instrument.
LC-MS analysis method: (1) chromatographic conditions: mobile phases A and B: 0.1% formic acid in water and 0.1% formic acid in acetonitrile, respectively; gradient elution mode; flow rate: 0.5 mL/min; injection volume: 10 µL; chromatographic column: nanomicro Unisil C18aq (4.6 mm × 150 mm, 5 µm); column temperature: 40°C. (2) Mass spectrometry conditions: For mass spectrometry, an electrospray ionization source (ESI), positive ion analysis mode, and multiple reaction monitoring (MRM) scanning mode were used.
For data processing, SCIEX OS (Version 2.1.6) software was used to quantify blood drug concentration data and PKSolver (Version 2.0) software was used to calculate pharmacokinetic parameters.

Row | SMILES | EC50 (human GIPR) [nM] | clearance [1] [mL/min/kg] | half-life [1] [h]
1 | CC[C@H](C)[C@H](NC(=O)[C@H](CO)NC(=O)[C@H](CC(C)C)NC(=O)[C@H](CC(=O)O)NC(=O)[C@H](CO)NC(=O)[C@@H](NC(=O)[C@H](Cc1ccccc1)NC(=O)[C@@H](NC(=O)CNC(=O)[C@H](Cc1c[nH]cn1)NC(=O)C(C)(C)NC(=O)[C@@H](N)Cc1c[nH]cn1)[C@@H](C)O)[C@@H](C)O)C(=O)N[C@@H](CC(C)C)C(=O)N[C@@H](CC(C)C)C(=O)N[C@@H](CCC(=O)O)C(=O)N[C@@H](CCCCNC(=O)COCCOCCNC(=O)COCCOCCNC(=O)CC[C@H](NC(=O)CCCCCCCCCCCCCCCCCCC(=O)O)C(=O)O)C(=O)N[C@@H](CCC(N)=O)C(=O)N[C@@H](C)C(=O)N[C@@H](C)C(=O)NC1(C(=O)N[C@@H](CCC(=O)O)C(=O)N[C@@H](Cc2ccccc2)C(=O)N[C@H](C(=O)N[C@@H](CCC(=O)O)C(=O)N[C@@H](Cc2c[nH]c3ccccc23)C(=O)N[C@@H](CC(C)C)C(=O)N[C@@H](CC(C)C)C(=O)N[C@@H](C)C(=O)N[C@H](CCC(=O)O)C(=O)NCC(=O)N2CCC[C@H]2C(=O)N[C@@H](CO)C(=O)N[C@@H](CO)C(=O)NCC(=O)N[C@@H](C)C(=O)N2CCC[C@H]2C(=O)N2CCC[C@H]2C(=O)N2CCC[C@H]2C(=O)N[C@@H](CO)C(N)=O)C(C)C)CCC1 [Compound 0145] | 0.003 | 0.129 | 7.7
2 | CC[C@H](C)[C@H](NC(=O)[C@H](CO)NC(=O)[C@H](Cc1ccc(O)cc1)NC(=O)[C@H](CC(=O)O)NC(=O)[C@H](CO)NC(=O)[C@@H](NC(=O)[C@H](Cc1ccccc1)NC(=O)[C@@H](NC(=O)CNC(=O)[C@H](Cc1c[nH]cn1)NC(=O)C(C)(C)NC(=O)[C@@H](N)Cc1c[nH]cn1)[C@@H](C)O)[C@@H](C)O)C(=O)N[C@@H](CC(C)C)C(=O)N[C@@H](CC(C)C)C(=O)N[C@@H](CCC(=O)O)C(=O)N[C@@H](CCCCNC(=O)COCCOCCNC(=O)COCCOCCNC(=O)CC[C@H](NC(=O)CCCCCCCCCCCCCCCCCCC(=O)O)C(=O)O)C(=O)N[C@@H](CCC(N)=O)C(=O)N[C@@H](C)C(=O)N[C@@H](C)C(=O)NC1(C(=O)N[C@@H](CCC(=O)O)C(=O)N[C@@H](Cc2ccccc2)C(=O)N[C@H](C(=O)N[C@@H](CCC(=O)O)C(=O)N[C@@H](Cc2c[nH]c3ccccc23)C(=O)N[C@@H](CC(C)C)C(=O)N[C@@H](CC(C)C)C(=O)N[C@@H](C)C(=O)N[C@H](CCC(=O)O)C(=O)NCC(=O)N2CCC[C@H]2C(=O)N[C@@H](CO)C(=O)N[C@@H](CO)C(=O)NCC(=O)N[C@@H](C)C(=O)N2CCC[C@H]2C(=O)N2CCC[C@H]2C(=O)N2CCC[C@H]2C(=O)N[C@@H](CO)C(N)=O)C(C)C)CC1 [Compound 0149] | 0.004 | – | –
3 | CC[C@H](C)[C@H](NC(=O)[C@](C)(CCCCN)NC(=O)[C@H](CO)NC(=O)[C@H](Cc1ccc(O)cc1)NC(=O)[C@H](CC(=O)O)NC(=O)[C@H](CO)NC(=O)[C@@H](NC(=O)[C@H](Cc1ccccc1)NC(=O)[C@@H](NC(=O)CNC(=O)[C@H](CCC(N)=O)NC(=O)C(C)(C)NC(=O)[C@@H](N)Cc1ccc(O)cc1)[C@@H](C)O)[C@@H](C)O)C(=O)N[C@@H](CC(C)C)C(=O)N[C@@H](CCC(=O)O)C(=O)N[C@@H](CCCCNC(=O)COCCOCCNC(=O)COCCOCCNC(=O)CC[C@H](NC(=O)CCCCCCCCCCCCCCCCCCC(=O)O)C(=O)O)C(=O)N[C@@H](CCCCN)C(=O)N[C@@H](C)C(=O)N[C@@H](C)C(=O)NC(C)(CC)C(=O)N[C@@H](CCC(=O)O)C(=O)N[C@@H](Cc1ccccc1)C(=O)N[C@H](C(=O)N[C@@H](CCC(=O)O)C(=O)N[C@@H](Cc1c[nH]c2ccccc12)C(=O)N[C@@H](CC(C)C)C(=O)N[C@@H](CC(C)C)C(=O)N[C@@H](C)C(=O)NCC(=O)NCC(=O)N1CCC[C@H]1C(=O)N[C@@H](CO)C(=O)N[C@@H](CO)C(=O)NCC(=O)N[C@@H](C)C(=O)N1CCC[C@H]1C(=O)N1CCC[C@H]1C(=O)N1CCC[C@H]1C(=O)N[C@@H](CO)C(N)=O)C(C)C (stereo partly shown) [Compound 0129] (H-Y[Aib]QGTFTSDYS[αMeK]ILEK([AEEA-AEEA-γGlu-C20 diacid])KAA[ξIva]EFVEWLLAGGPSSGAPPPS-NH2) | 0.002 | – | –
4 | CC[C@H](C)[C@H](NC(=O)[C@H](CO)NC(=O)[C@H](Cc1ccc(O)cc1)NC(=O)[C@H](CC(=O)O)NC(=O)[C@H](CO)NC(=O)[C@@H](NC(=O)[C@H](Cc1ccccc1)NC(=O)[C@@H](NC(=O)CNC(=O)[C@H](Cc1c[nH]cn1)NC(=O)C(C)(C)NC(=O)[C@@H](N)Cc1c[nH]cn1)[C@@H](C)O)[C@@H](C)O)C(=O)N[C@@H](CC(C)C)C(=O)N[C@@H](CC(C)C)C(=O)N[C@@H](CCC(=O)O)C(=O)N[C@@H](CCCCNC(=O)COCCOCCNC(=O)COCCOCCNC(=O)CC[C@H](NC(=O)CCCCCCCCCCCCCCCCCCC(=O)O)C(=O)O)C(=O)N[C@@H](CCC(N)=O)C(=O)N[C@@H](C)C(=O)N[C@@H](C)C(=O)N[C@@H](CCC(N)=O)C(=O)N[C@@H](CCC(=O)O)C(=O)N[C@@H](Cc1ccccc1)C(=O)N[C@H](C(=O)N[C@@H](CCC(=O)O)C(=O)N[C@@H](Cc1c[nH]c2ccccc12)C(=O)N[C@@H](CC(C)C)C(=O)N[C@@H](CC(C)C)C(=O)N[C@@H](C)C(=O)NCC(=O)NCC(=O)N1CCC[C@H]1C(=O)N[C@@H](CO)C(=O)N[C@@H](CO)C(=O)NCC(=O)N[C@@H](C)C(=O)N1CCC[C@H]1C(=O)N1CCC[C@H]1C(=O)N1CCC[C@H]1C(=O)N[C@@H](CO)C(N)=O)C(C)C [Compound 0152] (H-H[Aib]HGTFTSDYSILLEK([AEEA-AEEA-γGlu-C20 diacid])QAAQEFVEWLLAGGPSSGAPPPS-NH2) | 0.009 | – | –
5 | CC[C@H](C)[C@H](NC(=O)[C@H](CO)NC(=O)[C@H](Cc1ccc(O)cc1)NC(=O)[C@H](CC(=O)O)NC(=O)[C@H](CO)NC(=O)[C@@H](NC(=O)[C@H](Cc1ccccc1)NC(=O)[C@@H](NC(=O)CNC(=O)[C@H](Cc1c[nH]cn1)NC(=O)C(C)(C)NC(=O)[C@@H](N)Cc1c[nH]cn1)[C@@H](C)O)[C@@H](C)O)C(=O)N[C@@H](CC(C)C)C(=O)N[C@@H](CC(C)C)C(=O)N[C@@H](CCC(=O)O)C(=O)N[C@@H](CCCCNC(=O)COCCOCCNC(=O)COCCOCCNC(=O)CC[C@H](NC(=O)CCCCCCCCCCCCCCCCCCC(=O)O)C(=O)O)C(=O)N[C@@H](CCC(N)=O)C(=O)N[C@@H](C)C(=O)N[C@@H](C)C(=O)N[C@@H](CCC(N)=O)C(=O)N[C@@H](CCC(=O)O)C(=O)N[C@@H](Cc1ccccc1)C(=O)N[C@H](C(=O)N[C@@H](CCC(=O)O)C(=O)N[C@@H](Cc1c[nH]c2ccccc12)C(=O)N[C@@H](CC(C)C)C(=O)N[C@@H](CC(C)C)C(=O)N[C@@H](C)C(=O)N[C@H](CCC(=O)O)C(=O)NCC(=O)N1CCC[C@H]1C(=O)N[C@@H](CO)C(=O)N[C@@H](CO)C(=O)NCC(=O)N[C@@H](C)C(=O)N1CCC[C@H]1C(=O)N1CCC[C@H]1C(=O)N1CCC[C@H]1C(=O)N[C@@H](CO)C(N)=O)C(C)C [Compound 0153] | 0.01 | – | –
